Test results from the supplement of paper PMC10307832.

Tests used:
Assay in all cases: relative viability (nuclei count vs DMSO), 5 days (fraction); higher = more cells survive
Ruxolitinib + Crizotinib = compound: N#CC[C@H](C1CCCC1)n1cc(-c2ncnc3[nH]ccc23)cn1 [Ruxolitinib] + C[C@@H](Oc1cc(-c2cnn(C3CCNCC3)c2)cnc1N)c1c(Cl)ccc(F)c1Cl [Crizotinib] (partner 1 µM)
In short: (§1)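 For relative viability, nuclei counts in treated wells were divided by those in vehicle wells. Lung cancer cell lines had been pin-tool dosed in 1536-well plates the day after seeding and cultured for 5 days, then fixed and stained in one step (final 0.05% Triton X-100, 1% formaldehyde, 1 ug/ml Hoechst) and imaged at 4×. Doses were one drug alone or a fixed anchor-drug dose plus five library-drug doses (not always all listed) in √10 steps, and values are duplicate-plate medians.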

Vismodegib + Crizotinib = compound: CS(=O)(=O)c1ccc(C(=O)Nc2ccc(Cl)c(-c3ccccn3)c2)c(Cl)c1 [Vismodegib] + C[C@@H](Oc1cc(-c2cnn(C3CCNCC3)c2)cnc1N)c1c(Cl)ccc(F)c1Cl [Crizotinib] (partner 1 µM)
In short: as §1

Ruxolitinib + Pemetrexed = compound: N#CC[C@H](C1CCCC1)n1cc(-c2ncnc3[nH]ccc23)cn1 [Ruxolitinib] + Nc1nc2[nH]cc(CCc3ccc(C(=O)N[C@@H](CCC(=O)O)C(=O)O)cc3)c2c(=O)[nH]1 [Pemetrexed] (partner 0.2 µM)
In short: as §1

Ruxolitinib + Luminespib = compound: N#CC[C@H](C1CCCC1)n1cc(-c2ncnc3[nH]ccc23)cn1 [Ruxolitinib] + CCNC(=O)c1noc(-c2cc(C(C)C)c(O)cc2O)c1-c1ccc(CN2CCOCC2)cc1 [Luminespib] (partner 0.01 µM)
In short: as §1

Row | Cell Line | relative viability (Ruxolitinib + Crizotinib; first compound 0.08 µM) | relative viability (Ruxolitinib + Crizotinib; first compound 0.253 µM) | relative viability (Ruxolitinib + Crizotinib; first compound 0.8 µM) | relative viability (Ruxolitinib + Crizotinib; first compound 2.53 µM) | relative viability (Ruxolitinib + Crizotinib; first compound 8 µM) | relative viability (Vismodegib + Crizotinib; first compound 0.08 µM) | relative viability (Vismodegib + Crizotinib; first compound 0.253 µM) | relative viability (Vismodegib + Crizotinib; first compound 0.8 µM) | relative viability (Vismodegib + Crizotinib; first compound 2.53 µM) | relative viability (Vismodegib + Crizotinib; first compound 8 µM) | relative viability (Ruxolitinib + Pemetrexed; first compound 0.08 µM) | relative viability (Ruxolitinib + Pemetrexed; first compound 0.253 µM) | relative viability (Ruxolitinib + Pemetrexed; first compound 0.8 µM) | relative viability (Ruxolitinib + Pemetrexed; first compound 2.53 µM) | relative viability (Ruxolitinib + Pemetrexed; first compound 8 µM) | relative viability (Ruxolitinib + Luminespib; first compound 0.253 µM) | relative viability (Ruxolitinib + Luminespib; first compound 0.8 µM) | relative viability (Ruxolitinib + Luminespib; first compound 2.53 µM) | relative viability (Ruxolitinib + Luminespib; first compound 8 µM) | relative viability (Ruxolitinib + Luminespib; first compound 0.08 µM)
1 | HCC-78 | 0.305 | 0.273 | 0.308 | 0.322 | 0.324 | 0.307 | 0.351 | 0.286 | 0.351 | 0.347 | 0.919 | 0.952 | 0.857 | 0.892 | 0.955 |  |  |  |  | 
2 | HCC-366 | 0.513 | 0.551 | 0.549 | 0.449 | 0.257 | 0.623 | 0.567 | 0.501 | 0.508 | 0.566 | 0.162 | 0.193 | 0.155 | 0.192 | 0.147 |  |  |  |  | 
3 | HCC-827 |  | 0.878 | 0.734 | 0.856 | 0.826 | 0.893 | 0.888 | 0.985 | 0.908 | 0.887 |  | 0.249 | 0.231 | 0.258 | 0.274 | 0.578 | 0.679 | 0.519 | 0.562 | 
4 | HOP-62 |  | 1.05 | 0.707 | 1.01 | 0.749 | 0.991 | 0.905 | 0.867 | 0.503 | 0.908 | 0.324 | 0.363 | 0.299 | 0.314 | 0.323 | 0.946 | 0.934 | 0.927 | 0.686 | 0.879
5 | IA-LM | 0.886 | 1.05 | 0.791 | 0.849 | 0.638 | 0.719 | 0.769 | 0.906 | 0.681 | 0.94 |  |  |  |  |  |  |  |  |  | 
6 | LC-2-ad |  | 0.485 | 0.49 | 0.474 | 0.465 | 0.419 | 0.477 | 0.434 | 0.37 | 0.469 | 0.287 | 0.306 | 0.306 | 0.26 | 0.272 | 1 | 1 | 0.693 | 0.688 | 
7 | LCLC-97TM1 | 0.361 | 0.393 | 0.487 | 0.472 | 0.275 |  |  | 0.418 |  | 0.355 | 0.21 | 0.21 | 0.184 | 0.175 | 0.147 | 0.657 | 0.78 | 0.626 | 0.904 | 0.617
8 | LCLC-103H | 1.04 | 1.15 | 1.2 | 1.09 | 0.988 | 0.871 | 1.04 | 0.955 | 1.02 | 1.04 | 0.454 | 0.474 | 0.45 | 0.46 | 0.455 | 0.862 | 0.959 | 1.04 | 0.956 | 0.851
9 | LK-2 |  | 0.224 | 0.243 | 0.283 | 0.239 | 0.247 | 0.248 | 0.215 | 0.203 | 0.239 | 0.291 | 0.276 | 0.308 | 0.234 | 0.29 | 0.157 | 0.187 | 0.203 | 0.168 | 0.184
10 | LOU-NH91 | 0.626 | 0.723 | 0.788 | 0.707 | 0.704 | 0.726 | 0.76 | 0.704 | 0.747 | 0.728 | 0.376 | 0.338 | 0.378 | 0.354 | 0.353 | 0.361 | 0.35 | 0.316 | 0.382 | 
